Measurements: article PMC7177456, “A Peptidomimetic Fluorescent Probe to Detect the Trypsin β2 Subunit of the Human 20S Proteasome” (International Journal of Molecular Sciences, 2020)

What was measured:
20S proteasome [1] = experiment: Proteolytic cleavage pattern by RP-HPLC; format: biochemical, human; settings: substrate 3.1 × 10^−6 M, 20S proteasome 1.07 × 10^−9 M, one hour
Procedure: For each sample of the diluted substrate (concentration; 3.1 × 10^−6 M), an appropriate amount of proteasome (1.07 × 10^−9 M) was added, and the solution was incubated for 5, 30, and 60 min. The proteolytic reaction was monitored by RP-HPLC.

[2] = target: T1, human 20S proteasome, trypsin-like (β2) subunit (Homo sapiens, UniProt P49720+Q99436); experiment: Kinetic parameters of substrate 1 with human 20S proteasome (allosteric fit); format: biochemical; settings: for kcat/Km: calculated from the kcat and Km values; for Km / kcat: 20S proteasome 1.07 × 10^−9 M
T1 construct: purchased Boston Biochem (Cambridge, MA, USA)
Procedure: (§1) For enzymatic studies, the human 20S proteasome, 26S proteasome, and 20S immunoproteasome were purchased from Boston Biochem (Cambridge, MA, USA). The 20S proteasome concentration for library deconvolution was in the nanomolar range, and this proteasome entity was used for the main study. Deconvolution of the peptide libraries was performed using the iterative solution method. Dimethyl sulfoxide (DMSO) was used as a solvent for preparation of the stock solution (5 mg/mL) for each lyophilized sub-library. This stock solution was diluted ten times using an assay buffer (50 mM Tris/HCl buffer (pH 8.2)) for the 20S and 20Si proteasome, and for 26S, the buffer was supplemented with 40 mM KCl, 2 mM EDTA, 1 mM DTT, 100 µM ATP, and 50 µg/mL bovine serum albumin (BSA). The volume composition of each well of the 96-well plate was: 20 µL library, 160 µL assay buffer, and 20 µL 20S proteasome solution at a concentration of 1.07 × 10^−9 M. Absorbance or fluorescence measurements were performed on a FluoroStar OMEGA multimode microplate reader (BMG, Ortenberg, Germany). Absorbance increases were monitored at 410 nm. The excitation and emission wavelengths were 320 and 450 nm respectively, for the ABZ/ANB. Enzymatic hydrolysis of the peptide was performed in the assay buffer at 37 °C and continued over 60 min.
The procedures to determine the kinetic constants Km and kcat are described below. Increasing concentrations of substrate 1 ranged from 1 × 10^−6 to 2 × 10^−5 M. In parallel, a kinetic assay with the artificial activator SDS at 0.01% was also performed. The data were fitted to an allosteric plot using GraphPad prism v6.0 (GraphPad Software Inc., La Jolla, CA, USA). The specificity constants (kcat/ Km) were calculated from the kcat and Km values. Measurements were performed using a 20S proteasome concentration of 1.07 × 10^−9 M. Three to five measurements were performed for each compound dilution (the systematic error, defined as the standard deviation, never surpassed 20%). The initial hydrolysis rates were used as the amount of enzymatic activity for the tested compounds. All kinetic study details and kinetic parameters have been described elsewhere.

20S proteasome [3] = experiment: Inhibitory studies: cleavage of substrate 1 in the presence of selective proteasome inhibitors; format: biochemical, human; settings: deduced from cleavage with selective inhibitors
Excerpt: A black, 96-well flat-bottomed microplate (Brand GMBH, Wertheim, Germany) was used for the inhibitory studies. Two inhibitors, carfilzomib (a selective inhibitor of the β5 subunit of the 20S proteasome) and epoxomicin, were purchased from Merck (Darmstadt, Germany) and used at final concentrations of 1.15 × 10^−6 M and 5.0 × 10^−5 M, respectively. The β2 inhibitor, PR671A [20], and the β1 inhibitor, NCOO1 [21], were used at a concentration of 5 × 10^−6 M. These reagents were kindly provided by Alexei Kisselev from Dartmouth University (Dartmouth, NH, USA). The concentration of 20S proteasome was 1.07 × 10^−9 M. The buffered proteasome solution was mixed with 10 µL inhibitor solution. This mixture was incubated for 30 min at 37 °C. After this period, the substrate solution was added at a concentration of 1.34 × 10^−5 M, and the fluorescence was measured over time at 320 nm excitation and 450 nm emission wavelengths. All measurements were performed in triplicate.

[4] = system: 20S proteasome in human urine; experiment: Proteasome activity in human urine with substrate 1; format: biochemical; settings: for proteasome activity (cleavage of substrate 1): 80 µL urine, substrate 1.34 × 10^−5 M, 320/450 nm, Mann–Whitney p < 0.0001
Procedure: All urine samples were purchased from St. Vincent de Paul Hospital in Gdynia, Poland (contract no. JN/777/R720/08.11.17). All methods and procedures were performed in accordance with this contract agreement. Participants were informed about the study and sample collection, and their written consent was collected. […] Therefore, the samples were considered unnamed. The samples of human urine were taken during mid-urination and kept for 48 h at −80 °C until required. All samples used for assay development were taken from healthy volunteers (n = 5), and oncological samples were obtained from patients diagnosed with bladder cancer (n = 8).
The urine samples were thawed at room temperature, gently vortexed, and briefly centrifuged (<20 s) to collect the sample at the bottom of the tube. A total of 80 μL urine was transferred to a 96-well microplate and mixed with assay buffer and substrate 1. Proteasome activity was assayed as described earlier. Briefly, 80 µL of urine from healthy volunteers, urine from patients diagnosed with bladder cancer, and bladder cancer urine supplemented by the inhibitor PR671A were mixed with 200 µL of the assayed buffer and 20 µL of the substrate at a concentration of 1.34 × 10^−5 M, and the fluorescence was quantified. An excitation wavelength equal to 320 nm and an emission wavelength of 450 nm were used.
The resulting data were analyzed using Graphpad Prism version 6.0 software (GraphPad Software Inc., La Jolla, CA, USA). All fluorescent measurements were performed in triplicate and represented by the mean ± standard deviation (SD). A two-tailed Mann–Whitney test was applied for the statistical analysis (p < 0.0001).

[5] = system: 20S proteasome, 26S proteasome and immunoproteasome 20S; experiment: Cleavage of substrate 1 by 20S, 26S and 20S immunoproteasome; format: biochemical, human; settings: 20S vs 26S vs 20S immunoproteasome, equimolar concentrations; initial screening
Procedure: as §1

20S proteasome [6] = experiment: Titration: 20S proteasome assay detection limit; format: biochemical, human; settings: substrate 1.34 × 10^−5 M; 20S proteasome 0.05 to 2 nM; 37 °C, 30 min; 320/450 nm; triplicate
Procedure: A total of 160 µL assay buffer was added to each well of the 96-well plate, containing a constant substrate concentration (1.34 × 10^−5 M) (20 µL), followed by 20 µL of the 20S proteasome, with concentrations ranging from 0.05 to 2 nM. In total, seven different concentrations were used. The excitation and emission wavelengths were 320 and 450 nm, respectively. Enzymatic hydrolysis of the peptide was performed in the previously described buffer at 37 °C and continued over 30 min. A linear fragment of the curve was chosen, and the slope was calculated for each system. All measurements were performed in triplicate.

[7] = in the presence of artificial activator SDS 0.01%, pH 8.2, 37 °C

For “ABZ–Dap(O2(Cbz))–Dap(GO1)–Dap(O2(Cbz))–Arg–ANB–NH2 [substrate 1]”, the cleavage products (20S proteasome [1]) was “two products with retention times corresponding to ABZ–Dap(O2(Cbz))–Dap(GO1)–Dap(O2(Cbz))–Arg–OH (2) (tR = 18.24) and ABZ–NH2 (tR = 7.89)”, the kcat/Km ([2]; in the presence of artificial activator SDS 0.01%) was 3.23e+07 M⁻¹ s⁻¹ and the Km [2, 7] was 6.84 ± 0.12 µM. It also gave a kcat [2, 7] of 221 ± 18 s⁻¹, a kcat ([2]; substrate alone, without SDS, 50 mM Tris/HCl pH 8.2, 37 °C) of 245 ± 21 s⁻¹ and a Km ([2]; substrate alone, without SDS, 50 mM Tris/HCl pH 8.2, 37 °C, substrate 1 × 10^−6 to 2 × 10^−5 M, ABZ/ANB fluorescence 320/450 nm, three to five measurements) of 3.22 ± 0.02 µM. For the same substance, the kcat/Km ([2]; substrate alone, without SDS) was 7.61e+07 M⁻¹ s⁻¹, the “type of cleavage kinetics” value ([2]; substrate alone, characteristic for allosteric enzymes) was “sigmoidal kinetics” and the “sub-site selectivity of hydrolysis” value (20S proteasome [3]) was “hydrolyzed exclusively by the β2 sub-site”. For the same substance, the “fluorescence (in words)” value ([4]; bladder cancer urine samples, n = 8) was “fluorescence increase that was observed in all samples”, the “proteasome activity (cleavage of substrate 1)” value ([4]; bladder cancer urine, n = 8, mean ± SD) was 48.4 ± 28.1 and the “fluorescence (in words)” value ([4]; healthy urine samples, n = 5) was “insignificant background levels of fluorescence”. For the same substance, the “proteasome activity (cleavage of substrate 1)” value ([4]; healthy urine, n = 5, mean ± SD) was 0.1 ± 0.04, the “selectivity among proteasome entities” value [5] was “selectively proteolyzed by the 20S proteasome” and the “20S proteasome assay detection limit” value (20S proteasome [6]) was 10^−11 M.
